Experimental data: US20070015723A1, “Antiviral oligonucleotides having a conserved G4 core sequence” (priority 1992, published 2007)

What was measured:
[1] = test system: phospholipase A2 from Agkistrodon piscivorus piscivorus
[2] = test system: Naja naja naja phospholipase A2

Substance: ISIS 3196: GGG T GGG T ATA G AAG G GCT CC, P = S, SEQ ID NO 47 (GGGTGGGTATAGAAGGGCTCC; all phosphorothioate, sugars by position and methylation of C not given here)
- IC50 [1]: ~3000 nM
- IC50 [2]: > 10000 nM
